Measured values taken from patent publication US11684582B2, “Method for stabilizing humidity-sensitive pharmaceutical substance and stabilized preparation thereof” (Delta-Fly Pharma, Inc., priority 2021, dated 2023).

Assays:
[1] = tested on: patients having a solid cancer; settings: phase-I trial, patients with solid cancer; cited from earlier work
[2] = stability test in acceleration conditions (25° C./humidity 60%): appearance, purity and analogs by HPLC, water content, disintegration time, microbial content; type: physicochemical
[3] = tested on: cancer-bearing nude rats; settings: oral, versus TS-1; cited from earlier work
[4] = bulk drug, 25° C./60% RH, after 3 months

stable period (specifications satisfied) ([2]; acceleration conditions (25° C./humidity 60%)): ≤ 3 months
Analog (% area): Analog-1 (RRT 0.42) [2, 4]: 0.18%
Analog (% area): Impurity 1 (RRT 0.49) [2, 4]: 0.73%
Analog (% area): Impurity 2 (RRT 0.74) [2, 4]: 2.13%
Analog (% area): Impurity 3 (RRT 0.83) [2, 4]: 0.49%
Analog (% area): Impurity 4 (RRT 1.13) [2, 4]: 0.86%
Analog (% area): Total impurities [2, 4]: 5.8%
Analog (% area): relative elution time 0.30 [2, 4]: 0.27%
Analog (% area): relative elution time 0.80 [2, 4]: 0.21%
Analog (% area): relative elution time 0.88 [2, 4]: 0.07%
Analog (% area): relative elution time 0.89 [2, 4]: 0.05%
Analog (% area): relative elution time 0.90 [2, 4]: 0.10%
Analog (% area): relative elution time 0.92 [2, 4]: 0.15%
Analog (% area): relative elution time 0.93 [2, 4]: 0.13%
Analog (% area): relative elution time 0.94 [2, 4]: 0.05%
Analog (% area): relative elution time 1.03 [2, 4]: 0.22%
Analog (% area): relative elution time 1.29 [2, 4]: 0.06%
Analog (% area): relative elution time 1.30 [2, 4]: 0.09%
Appearance [2, 4]: Grayish-white
Purity (% area) [2, 4]: 94.0%
Water content [2, 4]: 0.2%
Passing status: Appearance ([2]; bulk drug, 25° C./60% RH, after 3 months, specification Grayish-white to pale yellow): Passed
Passing status: Water content ([2]; bulk drug, 25° C./60% RH, after 3 months, specification ≤0.5%): Passed
Passing status: Analog, individual impurities ([2]; bulk drug, 25° C./60% RH, after 3 months, specification ≤1.0%): Not
Passing status: Total impurities ([2]; bulk drug, 25° C./60% RH, after 3 months, specification ≤4.0%): Not
Structure (SMILES): CCOCn1cc(F)c(=O)n(C(=O)c2cccc(C(=O)Oc3cc(OC(=O)c4cc(OC(=O)CC)nc(OC(=O)CC)c4)c(Cl)cn3)c2)c1=O [DFP-11207]
safety (serious gastrointestinal toxicity, reduced blood platelet count) [1]: none of serious gastrointestinal toxicity such as diarrhea and toxicity of reduced blood platelet count were observed
therapeutic effects [3]: more excellent than TS-1
